Assay results from DBAASP.
Values after ≈ are worked out from the molar mass of the structure shown.

What was measured:
Assay in all cases: ≥ marks a high value that may be exact or a test limit, other limits are often not marked, values filed in µg/mL are converted to µM
[1] = system: Escherichia coli NCTC 10418
[2] = system: Enterococcus faecalis NCTC 12697
[3] = system: Candida albicans NCYC 1467
[4] = system: Staphylococcus aureus NCTC 12493
[5] = system: Staphylococcus aureus NCTC 10788
[6] = system: Klebsiella pneumoniae ATCC 43816
[7] = system: Pseudomonas aeruginosa ATCC 27853
[8] = system: Staphylococcus aureus NCTC 8325
[9] = system: Escherichia coli ATCC 25922
[10] = system: Staphylococcus aureus 90857
[11] = system: Clavibacter michiganensis subsp. michiganensis DSM 46294
[12] = system: Pseudomonas corrugata DSM 7228
[13] = system: Xanthomonas vesicatoria DSM 50861
[14] = system: Pseudomonas syringae pv. syringae DSM 10604
[15] = system: Pectobacterium carotovorum subsp. carotovorum DSM 30168
[16] = system: Pseudomonas syringae pv. tomato DC3000
[17] = system: Escherichia coli JM109
[18] = system: Staphylococcus aureus ATCC 6538P
[19] = system: Staphylococcus aureus
[20] = system: Candida albicans ATCC 90028
[21] = system: Pseudomonas aeruginosa Ps4

MIC [1] [µM] | MIC [2] [µM] | MIC [3] [µM] | MIC [4] [µM] | MIC [5] [µM] | MIC [6] [µM] | MIC [7] [µM] | MIC [10] [µM] | MIC [11] [µM] | MIC [12] [µM] | MIC [13] [µM] | MIC [14] [µM] | MIC [15] [µM] | MIC [16] [µM] | Compound | also measured
≥ 256 | ≥ 512 | ≥ 512 | ≥ 256 | ≥ 256 | ≥ 512 | > 512 | – | – | – | – | – | – | – | CC[C@H](C)[C@@H]1NC(=O)[C@H](C)NC(=O)[C@@H](NC(=O)[C@H](Cc2ccccc2)NC(=O)[C@@H](NC(=O)[C@H](CCCCN)NC(=O)[C@@H]2CCCN2C(=O)[C@H](CC(C)C)NC(=O)[C@@H](N)Cc2ccccc2)[C@@H](C)CC)CSSC[C@@H](C(=O)O)NC(=O)[C@H](CCCCN)NC(=O)[C@H](CCCCN)NC(=O)[C@H]([C@@H](C)O)NC1=O [FLPKIFCAITKKC] | –
– | – | – | – | – | – | – | 0.625 (≈ 1.02 µg/mL) | 0.308 (≈ 0.5 µg/mL) | 0.308 (≈ 0.5 µg/mL) | 0.308 (≈ 0.5 µg/mL) | 0.308 (≈ 0.5 µg/mL) | 1.54 (≈ 2.5 µg/mL) | 0.615 (≈ 0.999 µg/mL) | CC[C@H](C)[C@H](NC(=O)[C@H](CCCN=C(N)N)NC(=O)[C@H](CCCN=C(N)N)NC(=O)[C@H](CC(C)C)NC(=O)[C@H](Cc1ccccc1)NC(=O)[C@H](CCCN=C(N)N)NC(=O)[C@@H](N)CC(C)C)C(=O)N[C@@H](CC(C)C)C(=O)N[C@@H](CCCN=C(N)N)C(=O)N[C@@H](CCCN=C(N)N)C(=O)N[C@@H](CC(C)C)C(=O)N[C@@H](CC(C)C)C(N)=O [LRFLRRILRRLL] | –
16 (≈ 39.3 µg/mL) | ≥ 128 | ≥ 128 | ≥ 128 | ≥ 32 | ≥ 256 | 128 (≈ 315 µg/mL) | – | – | – | – | – | – | – | CC[C@H](C)[C@H](NC(=O)[C@H](C)NC(=O)[C@H](C)NC(=O)[C@@H]1CCCN1C(=O)[C@@H](NC(=O)[C@H](CC(C)C)NC(=O)[C@H](CCCCN)NC(=O)CNC(=O)[C@H](C)NC(=O)[C@H](CS)NC(=O)[C@H](CCCCN)NC(=O)[C@H](CCCCN)NC(=O)[C@H](CO)NC(=O)[C@@H](NC(=O)[C@H](CCCCN)NC(=O)[C@H](CS)NC(=O)[C@@H](NC(=O)[C@H](CCCCN)NC(=O)[C@H](CC(C)C)NC(=O)[C@@H](NC(=O)[C@H](C)NC(=O)CNC(=O)[C@H](CC(C)C)NC(=O)[C@@H](N)Cc1ccccc1)C(C)C)C(C)C)[C@@H](C)CC)C(C)C)C(=O)O [FLGAVLKVCKISKKCAGKLVPAAI] | –
8 (≈ 20.8 µg/mL) | 16 (≈ 41.7 µg/mL) | ≥ 64 | ≥ 32 | 16 (≈ 41.7 µg/mL) | 8 (≈ 20.8 µg/mL) | 16 (≈ 41.7 µg/mL) | – | – | – | – | – | – | – | CC[C@H](C)[C@H](NC(=O)[C@H](CCCCN)NC(=O)[C@H](CO)NC(=O)[C@H](Cc1c[nH]c2ccccc12)NC(=O)[C@H](CC(C)C)NC(=O)CN)C(=O)N[C@@H](CCCCN)C(=O)N[C@@H](CC(=O)O)C(=O)N[C@@H](C)C(=O)N[C@@H](C)C(=O)N[C@@H](CCCCN)C(=O)N[C@H](C(=O)N[C@@H](C)C(=O)NCC(=O)N[C@@H](CCCCN)C(=O)N[C@@H](C)C(=O)N[C@@H](C)C(=O)N[C@@H](CC(C)C)C(=O)NCC(=O)N[C@@H](Cc1ccccc1)C(=O)N[C@H](C(=O)N[C@@H](CC(N)=O)C(=O)N[C@@H](CCC(=O)O)C(=O)N[C@@H](CCSC)C(=O)N[C@H](C(N)=O)C(C)C)C(C)C)[C@@H](C)O [GLWSKIKDAAKTAGKAALGFVNEMV] | –

Second part, the compound before the results:

Compound | MIC [1] [µM] | MIC [2] [µM] | MIC [3] [µM] | MIC [4] [µM] | MIC [5] [µM] | MIC [6] [µM] | MIC [7] [µM] | MIC [10] [µM] | MIC [11] [µM] | MIC [12] [µM] | MIC [13] [µM] | MIC [14] [µM] | MIC [15] [µM] | MIC [16] [µM] | also measured
CC[C@H](C)[C@H](NC(=O)CNC(=O)[C@H](CO)NC(=O)[C@@H](NC(=O)[C@@H](NC(=O)[C@H](CCCCN)NC(=O)[C@H](C)NC(=O)[C@H](CC(C)C)NC(=O)[C@H](C)NC(=O)CNC(=O)[C@H](CC(C)C)NC(=O)[C@@H](N)Cc1ccccc1)[C@@H](C)CC)[C@@H](C)CC)C(=O)N[C@@H](Cc1ccccc1)C(N)=O [FLGALAKIISGIF] | – | – | – | – | – | – | – | – | – | – | – | – | – | – | MIC [8]: 4 µM (≈ 5.39 µg/mL); MIC [9]: > 100 µM
CC(C)C[C@H](NC(=O)[C@H](Cc1ccccc1)NC(=O)[C@H](CC(C)C)NC(=O)[C@H](CCCN=C(N)N)NC(=O)[C@H](CC(C)C)NC(=O)[C@H](Cc1ccccc1)NC(=O)[C@H](CC(C)C)NC(=O)[C@H](CCCN=C(N)N)NC(=O)[C@H](Cc1ccccc1)NC(=O)[C@H](CC(C)C)NC(=O)[C@H](CCCN=C(N)N)NC(=O)[C@H](Cc1ccccc1)NC(=O)[C@H](CC(C)C)NC(=O)[C@H](Cc1ccccc1)NC(=O)[C@H](CC(C)C)NC(=O)[C@H](CCCN=C(N)N)NC(=O)[C@H](CCCN=C(N)N)NC(=O)[C@@H](N)CCCCN)C(=O)N[C@@H](CCCCN)C(=O)N[C@@H](CCCCN)C(N)=O [KRRLFLFRLFRLFLRLFLKK] | – | – | – | – | – | – | – | 4 (≈ 10.8 µg/mL) | 0.922 (≈ 2.5 µg/mL) | 3.69 (≈ 10 µg/mL) | 0.922 (≈ 2.5 µg/mL) | 3.69 (≈ 10 µg/mL) | 3.69 (≈ 10 µg/mL) | 1.84 (≈ 5 µg/mL) | –
CC[C@H](C)[C@H](NC(=O)[C@H](C)NC(=O)[C@H](CO)NC(=O)[C@@H](NC(=O)[C@H](C)NC(=O)[C@H](CCCCN)NC(=O)[C@@H]1CCCN1C(=O)[C@@H](NC(=O)[C@H](CC(C)C)NC(=O)[C@H](CO)NC(=O)[C@H](CC(C)C)NC(=O)[C@@H](N)Cc1ccccc1)[C@@H](C)CC)[C@@H](C)CC)C(=O)N[C@@H](CO)C(=O)N[C@@H](C)C(=O)N[C@@H](CC(C)C)C(=O)N[C@H](C(=O)N[C@@H](CC(N)=O)C(=O)N[C@@H](Cc1cnc[nH]1)C(=O)N[C@@H](Cc1ccccc1)C(N)=O)[C@@H](C)CC [FLSLIPKAISAISALINHF] | ≥ 512 | ≥ 32 | 4 (≈ 8.22 µg/mL) | ≥ 32 | 2 (≈ 4.11 µg/mL) | ≥ 512 | > 512 | – | – | – | – | – | – | – | –
CC[C@H](C)[C@H](NC(=O)[C@H](C)NC(=O)[C@H](CC(C)C)NC(=O)[C@H](CS)NC(=O)[C@H](Cc1cnc[nH]1)NC(=O)[C@H](C)NC(=O)[C@H](C)NC(=O)[C@H](CS)NC(=O)[C@@H](N)CC(C)C)C(=O)N[C@@H](CCCN=C(N)N)C(=O)N[C@@H](CCCN=C(N)N)C(=O)N[C@@H](CCCN=C(N)N)C(N)=O [LCAAHCLAIRRR] | – | – | – | – | – | – | – | – | – | – | – | – | – | – | MIC [17]: 17.4 µM; MIC [18]: 5.42 µM; MIC [19]: > 46.3 µM
CC[C@H](C)[C@H](NC(=O)[C@H](C)NC(=O)[C@H](CC(C)C)NC(=O)[C@H](CCCN=C(N)N)NC(=O)[C@H](CC(C)C)NC(=O)[C@@H](NC(=O)[C@H](CCCN=C(N)N)NC(=O)[C@H](CC(C)C)NC(=O)[C@@H](NC(=O)[C@H](CC(C)C)NC(=O)[C@H](CCCN=C(N)N)NC(=O)[C@H](CCCN=C(N)N)NC(=O)[C@@H](N)CCCCN)[C@@H](C)CC)[C@@H](C)CC)C(=O)N[C@@H](CCCN=C(N)N)C(=O)N[C@@H](C)C(=O)N[C@@H](CC(C)C)C(=O)N[C@H](C(=O)N[C@@H](CCCCN)C(=O)N[C@@H](CCCCN)C(=O)N[C@@H](CCCN=C(N)N)C(N)=O)C(C)C [KRRLILRILRLAIRALVKKR] | – | – | – | – | – | – | – | 4 (≈ 9.94 µg/mL) | 0.101 (≈ 0.25 µg/mL) | 2.01 (≈ 5 µg/mL) | 0.101 (≈ 0.25 µg/mL) | 2.01 (≈ 5 µg/mL) | 4.02 (≈ 10 µg/mL) | 4.02 (≈ 10 µg/mL) | –
CC(C)C[C@H](NC(=O)[C@H](CCCN=C(N)N)NC(=O)[C@H](CCCCN)NC(=O)[C@H](CCCCN)NC(=O)[C@@H](N)CCCN=C(N)N)C(=O)N[C@@H](CCCCN)C(=O)N[C@H](C(=O)N[C@H](C(=O)N[C@@H](CCCCN)C(=O)N[C@@H](CCCN=C(N)N)C(=O)N[C@@H](CC(C)C)C(=O)N[C@H](C(N)=O)C(C)C)C(C)C)C(C)C [RKKRLKVVKRLV] | – | – | – | – | – | – | – | ≥ 62.5 | 6.57 (≈ 9.99 µg/mL) | 6.57 (≈ 9.99 µg/mL) | 6.57 (≈ 9.99 µg/mL) | 3.28 (≈ 5 µg/mL) | 6.57 (≈ 9.99 µg/mL) | 1.64 (≈ 2.5 µg/mL) | –
CC[C@H](C)[C@@H]1NC(=O)[C@H](C)NC(=O)[C@@H](NC(=O)[C@H](Cc2ccccc2)NC(=O)[C@@H](NC(=O)[C@H](CCCCN)NC(=O)[C@H](CO)NC(=O)[C@H](Cc2ccccc2)NC(=O)[C@@H](NC(=O)[C@H](CC(N)=O)NC(=O)[C@H](C)NC(=O)[C@H](C)NC(=O)[C@@H](NC(=O)[C@H](CO)NC(=O)[C@H](C)NC(=O)[C@@H](NC(=O)[C@@H](NC(=O)[C@@H]2CCCN2C(=O)[C@H](CC(C)C)NC(=O)[C@@H](N)Cc2ccccc2)[C@@H](C)CC)[C@@H](C)CC)C(C)C)C(C)C)[C@@H](C)CC)CSSC[C@@H](C(=O)O)NC(=O)[C@H](CCCCN)NC(=O)[C@H](CCCCN)NC(=O)[C@H](CO)NC1=O [FLPIIASVAANVFSKIFCAISKKC] | – | – | – | – | – | – | – | – | – | – | – | – | – | – | MIC [20]: 29 µM (≈ 74.5 µg/mL); MIC [8]: 27 µM (≈ 69.4 µg/mL); MIC [9]: 78 µM (≈ 200 µg/mL)
NC(=O)C[C@H](NC(=O)[C@H](CCCN=C(N)N)NC(=O)[C@H](CCCN=C(N)N)NC(=O)[C@H](Cc1c[nH]c2ccccc12)NC(=O)[C@@H](N)Cc1ccccc1)C(=O)N[C@@H](Cc1ccccc1)C(=O)N[C@@H](Cc1c[nH]c2ccccc12)C(=O)N[C@@H](CCCN=C(N)N)C(=O)N[C@@H](CCCN=C(N)N)C(N)=O [FWRRNFWRR] | – | – | – | – | – | – | – | – | – | – | – | – | – | – | MIC [21]: ≥ 176 µM
